{
  "source": "paper PMC5428509",
  "about": "“Irreversible inhibition of BTK kinase by a novel highly selective inhibitor CHMFL-BTK-11 suppresses inflammatory response in rheumatoid arthritis model” (Scientific Reports, 2017)",
  "assay_in_all_cases": "biochemical",
  "set-up_in_all_cases": "KinomeScan competition binding panel (DiscoveRx), percent of control at 1 uM",
  "details_in_all_cases": "read-out: Percent Control",
  "key": {"SRPK1": {"molecular_target": "SRPK1 (Homo sapiens, UniProt Q96SB4)", "source_text": "(§1) In order to further confirm the binding mode, we then tested the compounds in the BTK wild-type (wt) and BTK C481S mutant with immunoblotting by looking at the BTK Y551 auto-phosphorylation. […] In addition, a covalent bond was preferred to form between the […] acrylamide and Cys-481 near the hinge binding area, which further confirmed its irreversible binding mode (Fig. 1d). We next investigated CHMFL-BTK-11′s selectivity profile in 456 kinases/mutants with KinomeScan^TM technology."}, "ADCK4": {"molecular_target": "T1, ADCK4 (Homo sapiens, UniProt Q96D53)", "T1 construct": "gene COQ8B", "source_text": "as §1"}, "HIPK3": {"molecular_target": "HIPK3 (Homo sapiens, UniProt Q9H422)", "source_text": "as §1"}, "EIF2AK1": {"molecular_target": "EIF2AK1 (Homo sapiens, UniProt Q9BQI3)", "source_text": "as §1"}, "ADCK3": {"molecular_target": "T2, ADCK3 (Homo sapiens, UniProt Q8NI60)", "T2 construct": "gene COQ8A", "source_text": "as §1"}, "[1]": {"molecular_target": "T3, RSK4(Kin.Dom.1-N-terminal) (Homo sapiens, UniProt Q9UK32)", "T3 construct": "gene RPS6KA6; Kin.Dom.1-N-terminal", "source_text": "as §1"}, "PIK3CG": {"molecular_target": "PIK3CG (Homo sapiens, UniProt P48736)", "sequence (P48736 whole entry)": "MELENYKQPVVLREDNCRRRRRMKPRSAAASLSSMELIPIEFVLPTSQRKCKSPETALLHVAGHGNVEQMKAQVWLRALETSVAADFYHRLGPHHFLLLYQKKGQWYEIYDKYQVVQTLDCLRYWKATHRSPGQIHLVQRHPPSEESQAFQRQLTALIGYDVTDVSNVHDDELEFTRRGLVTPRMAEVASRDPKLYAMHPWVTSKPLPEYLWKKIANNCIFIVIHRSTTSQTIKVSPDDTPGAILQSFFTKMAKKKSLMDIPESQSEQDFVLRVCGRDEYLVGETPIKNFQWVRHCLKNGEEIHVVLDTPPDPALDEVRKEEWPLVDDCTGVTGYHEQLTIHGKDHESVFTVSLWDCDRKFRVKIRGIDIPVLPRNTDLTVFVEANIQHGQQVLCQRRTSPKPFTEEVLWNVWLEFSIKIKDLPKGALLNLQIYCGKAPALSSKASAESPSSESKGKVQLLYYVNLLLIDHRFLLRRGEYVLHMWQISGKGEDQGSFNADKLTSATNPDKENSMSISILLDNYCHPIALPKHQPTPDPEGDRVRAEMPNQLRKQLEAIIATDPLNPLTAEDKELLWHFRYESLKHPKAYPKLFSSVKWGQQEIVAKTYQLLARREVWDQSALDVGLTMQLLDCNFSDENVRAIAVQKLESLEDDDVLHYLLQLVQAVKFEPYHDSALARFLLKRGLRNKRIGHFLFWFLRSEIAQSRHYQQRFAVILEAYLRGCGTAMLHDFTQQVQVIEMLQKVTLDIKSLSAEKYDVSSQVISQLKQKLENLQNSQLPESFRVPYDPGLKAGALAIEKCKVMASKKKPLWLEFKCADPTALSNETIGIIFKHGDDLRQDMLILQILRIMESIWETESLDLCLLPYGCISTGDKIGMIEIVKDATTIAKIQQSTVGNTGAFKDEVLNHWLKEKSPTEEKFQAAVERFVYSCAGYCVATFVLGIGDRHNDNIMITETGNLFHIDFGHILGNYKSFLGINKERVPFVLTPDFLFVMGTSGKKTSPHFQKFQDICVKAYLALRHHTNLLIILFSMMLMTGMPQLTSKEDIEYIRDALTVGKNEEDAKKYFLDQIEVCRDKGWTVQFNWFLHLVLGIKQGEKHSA", "source_text": "as §1"}, "EPHA7": {"molecular_target": "EPHA7 (Homo sapiens, UniProt Q15375)", "source_text": "as §1"}, "JNK3": {"molecular_target": "T4, JNK3 (Homo sapiens, UniProt P53779)", "T4 construct": "gene MAPK10", "source_text": "as §1"}, "MST1": {"molecular_target": "T5, MST1 (Homo sapiens, UniProt Q13043)", "T5 construct": "gene STK4", "source_text": "as §1"}, "LATS1": {"molecular_target": "LATS1 (Homo sapiens, UniProt O95835)", "source_text": "as §1"}, "LRRK2(G2019S)": {"molecular_target": "LRRK2(G2019S) (Homo sapiens, UniProt Q5S007, G2019S)", "sequence (Q5S007 whole entry G2019S)": "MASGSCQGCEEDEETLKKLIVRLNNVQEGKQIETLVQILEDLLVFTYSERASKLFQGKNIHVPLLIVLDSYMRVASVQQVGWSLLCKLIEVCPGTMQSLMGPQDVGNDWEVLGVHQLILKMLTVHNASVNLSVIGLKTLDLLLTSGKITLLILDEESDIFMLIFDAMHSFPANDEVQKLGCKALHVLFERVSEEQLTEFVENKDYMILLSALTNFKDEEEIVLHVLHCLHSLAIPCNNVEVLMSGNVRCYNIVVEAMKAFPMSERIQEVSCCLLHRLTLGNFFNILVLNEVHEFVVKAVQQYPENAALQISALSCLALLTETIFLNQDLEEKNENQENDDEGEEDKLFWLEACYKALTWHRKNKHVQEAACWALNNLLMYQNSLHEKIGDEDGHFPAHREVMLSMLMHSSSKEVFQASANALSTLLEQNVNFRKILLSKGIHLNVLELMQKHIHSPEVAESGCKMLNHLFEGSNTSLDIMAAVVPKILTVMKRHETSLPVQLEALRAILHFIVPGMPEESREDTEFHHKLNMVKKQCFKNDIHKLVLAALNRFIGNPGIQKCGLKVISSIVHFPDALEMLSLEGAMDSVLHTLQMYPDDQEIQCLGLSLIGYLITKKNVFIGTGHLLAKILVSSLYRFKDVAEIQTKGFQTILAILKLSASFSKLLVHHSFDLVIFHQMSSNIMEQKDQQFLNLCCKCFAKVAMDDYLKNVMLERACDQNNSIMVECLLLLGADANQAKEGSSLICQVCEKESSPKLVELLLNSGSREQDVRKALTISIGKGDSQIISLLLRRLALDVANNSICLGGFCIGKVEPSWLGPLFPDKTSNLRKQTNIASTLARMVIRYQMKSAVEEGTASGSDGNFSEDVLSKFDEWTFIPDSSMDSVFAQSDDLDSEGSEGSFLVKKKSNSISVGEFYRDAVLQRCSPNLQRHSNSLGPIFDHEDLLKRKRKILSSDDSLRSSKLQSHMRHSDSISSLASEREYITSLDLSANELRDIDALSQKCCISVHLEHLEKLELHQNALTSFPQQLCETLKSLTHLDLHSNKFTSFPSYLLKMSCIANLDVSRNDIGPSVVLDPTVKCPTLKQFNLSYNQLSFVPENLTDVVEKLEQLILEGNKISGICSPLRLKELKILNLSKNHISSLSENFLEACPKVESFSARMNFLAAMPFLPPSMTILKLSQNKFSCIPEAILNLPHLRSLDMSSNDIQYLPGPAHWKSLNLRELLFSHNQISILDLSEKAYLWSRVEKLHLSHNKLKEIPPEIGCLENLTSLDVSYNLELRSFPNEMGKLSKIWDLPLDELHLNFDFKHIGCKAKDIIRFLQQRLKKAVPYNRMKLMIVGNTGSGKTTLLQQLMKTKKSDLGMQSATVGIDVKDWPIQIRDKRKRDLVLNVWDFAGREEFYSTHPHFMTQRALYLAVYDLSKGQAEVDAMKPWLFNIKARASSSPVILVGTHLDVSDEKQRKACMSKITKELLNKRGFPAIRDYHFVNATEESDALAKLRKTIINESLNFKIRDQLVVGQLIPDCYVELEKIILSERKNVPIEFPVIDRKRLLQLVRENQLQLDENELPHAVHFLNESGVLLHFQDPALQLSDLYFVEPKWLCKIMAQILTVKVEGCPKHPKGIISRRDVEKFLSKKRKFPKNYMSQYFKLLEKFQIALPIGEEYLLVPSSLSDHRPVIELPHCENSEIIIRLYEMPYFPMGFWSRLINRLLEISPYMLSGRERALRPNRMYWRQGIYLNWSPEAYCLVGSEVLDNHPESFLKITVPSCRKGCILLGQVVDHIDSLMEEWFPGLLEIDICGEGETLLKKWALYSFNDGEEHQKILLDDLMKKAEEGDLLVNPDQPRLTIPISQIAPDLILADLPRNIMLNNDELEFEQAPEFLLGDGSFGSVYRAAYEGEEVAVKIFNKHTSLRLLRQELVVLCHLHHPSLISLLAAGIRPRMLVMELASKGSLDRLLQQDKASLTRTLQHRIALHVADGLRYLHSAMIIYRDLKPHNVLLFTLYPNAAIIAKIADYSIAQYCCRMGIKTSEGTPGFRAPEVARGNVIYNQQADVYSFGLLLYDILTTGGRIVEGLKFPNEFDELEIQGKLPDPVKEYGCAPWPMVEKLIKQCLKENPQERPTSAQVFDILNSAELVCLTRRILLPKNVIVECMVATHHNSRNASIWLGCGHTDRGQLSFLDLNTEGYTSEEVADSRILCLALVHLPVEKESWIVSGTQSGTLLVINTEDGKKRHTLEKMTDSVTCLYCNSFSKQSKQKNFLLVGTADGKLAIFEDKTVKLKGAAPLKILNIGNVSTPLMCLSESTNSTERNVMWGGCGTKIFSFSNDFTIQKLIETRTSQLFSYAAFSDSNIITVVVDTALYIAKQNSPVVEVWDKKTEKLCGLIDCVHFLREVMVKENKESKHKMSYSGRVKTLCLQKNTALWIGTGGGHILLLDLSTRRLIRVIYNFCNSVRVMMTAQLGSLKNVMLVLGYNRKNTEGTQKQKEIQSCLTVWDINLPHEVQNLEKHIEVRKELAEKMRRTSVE", "source_text": "as §1"}, "RIPK2": {"molecular_target": "RIPK2 (Homo sapiens, UniProt O43353)", "source_text": "as §1"}, "MEK4": {"molecular_target": "T6, MEK4 (Homo sapiens, UniProt P45985)", "T6 construct": "gene MAP2K4", "source_text": "as §1"}, "MEK5": {"molecular_target": "T7, MEK5 (Homo sapiens, UniProt Q13163)", "T7 construct": "gene MAP2K5", "source_text": "as §1"}, "EPHA4": {"molecular_target": "EPHA4 (Homo sapiens, UniProt P54764)", "source_text": "as §1"}, "CDK4-cyclinD3": {"molecular_target": "T8, CDK4-cyclinD3 (Homo sapiens, UniProt P11802)", "T8 construct": "cyclinD3", "source_text": "as §1"}, "[2]": {"molecular_target": "T9, ABL1(H396P)-nonphosphorylated (Homo sapiens, UniProt P00519, H396P)", "T9 construct": "nonphosphorylated", "source_text": "as §1"}, "CAMK2A": {"molecular_target": "CAMK2A (Homo sapiens, UniProt Q9UQM7)", "source_text": "as §1"}, "PDPK1": {"molecular_target": "PDPK1 (Homo sapiens, UniProt O15530)", "sequence (O15530 whole entry)": "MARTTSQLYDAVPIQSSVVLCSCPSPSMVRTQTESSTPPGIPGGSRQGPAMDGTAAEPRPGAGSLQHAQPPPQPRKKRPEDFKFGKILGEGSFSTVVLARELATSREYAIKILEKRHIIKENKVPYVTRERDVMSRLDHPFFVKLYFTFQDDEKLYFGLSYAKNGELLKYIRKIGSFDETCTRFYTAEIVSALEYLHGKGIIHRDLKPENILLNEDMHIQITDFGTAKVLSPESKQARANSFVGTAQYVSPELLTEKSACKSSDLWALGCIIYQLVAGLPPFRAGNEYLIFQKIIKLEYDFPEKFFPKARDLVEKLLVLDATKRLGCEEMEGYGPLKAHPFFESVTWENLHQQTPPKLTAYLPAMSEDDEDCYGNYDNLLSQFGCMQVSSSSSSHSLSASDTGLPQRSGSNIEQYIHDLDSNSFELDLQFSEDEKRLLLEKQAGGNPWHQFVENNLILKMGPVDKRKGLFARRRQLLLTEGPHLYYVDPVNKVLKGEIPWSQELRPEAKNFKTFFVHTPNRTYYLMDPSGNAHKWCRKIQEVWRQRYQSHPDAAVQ", "source_text": "as §1"}, "NEK5": {"molecular_target": "NEK5 (Homo sapiens, UniProt Q6P3R8)", "source_text": "as §1"}, "STK35": {"molecular_target": "STK35 (Homo sapiens, UniProt Q8TDR2)", "sequence (Q8TDR2 whole entry)": "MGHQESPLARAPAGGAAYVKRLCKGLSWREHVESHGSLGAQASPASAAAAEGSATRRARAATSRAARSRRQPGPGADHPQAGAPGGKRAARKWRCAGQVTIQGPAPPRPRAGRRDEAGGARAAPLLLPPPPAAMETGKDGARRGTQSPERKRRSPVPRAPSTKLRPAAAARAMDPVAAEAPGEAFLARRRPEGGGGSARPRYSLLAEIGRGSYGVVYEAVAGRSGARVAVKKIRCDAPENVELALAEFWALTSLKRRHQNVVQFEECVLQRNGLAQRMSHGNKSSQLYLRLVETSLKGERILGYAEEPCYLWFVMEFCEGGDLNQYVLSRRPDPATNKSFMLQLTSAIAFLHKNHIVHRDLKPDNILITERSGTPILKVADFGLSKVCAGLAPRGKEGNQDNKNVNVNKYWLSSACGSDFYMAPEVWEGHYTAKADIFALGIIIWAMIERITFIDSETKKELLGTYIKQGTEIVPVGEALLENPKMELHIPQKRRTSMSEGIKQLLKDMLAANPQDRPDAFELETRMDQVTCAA", "source_text": "as §1"}, "MARK2": {"molecular_target": "MARK2 (Homo sapiens, UniProt Q7KZI7)", "source_text": "as §1"}, "MET(Y1235D)": {"molecular_target": "MET(Y1235D) (Homo sapiens, UniProt P08581, Y1235D)", "source_text": "as §1"}, "MAPKAPK5": {"molecular_target": "MAPKAPK5 (Homo sapiens, UniProt Q8IW41)", "source_text": "as §1"}},
  "data": [
    {"smiles": "C=CC(=O)Nc1cc(-n2c(=O)ccc3cnc4ccc(-n5cccn5)cc4c32)ccc1C", "note": "[CHMFL-BTK-11]", "values": [
      {"measurement": "remaining binding at 1 µM", "setting": "SRPK1", "result": 100, "unit": "%"},
      {"measurement": "remaining binding at 1 µM", "setting": "ADCK4", "result": 100, "unit": "%"},
      {"measurement": "remaining binding at 1 µM", "setting": "HIPK3", "result": 100, "unit": "%"},
      {"measurement": "remaining binding at 1 µM", "setting": "EIF2AK1", "result": 92, "unit": "%"},
      {"measurement": "remaining binding at 1 µM", "setting": "ADCK3", "result": 96, "unit": "%"},
      {"measurement": "remaining binding at 1 µM", "setting": "[1]", "result": 91, "unit": "%"},
      {"measurement": "remaining binding at 1 µM", "setting": "PIK3CG", "result": 73, "unit": "%"},
      {"measurement": "remaining binding at 1 µM", "setting": "EPHA7", "result": 97, "unit": "%"},
      {"measurement": "remaining binding at 1 µM", "setting": "JNK3", "result": 100, "unit": "%"},
      {"measurement": "remaining binding at 1 µM", "setting": "MST1", "result": 100, "unit": "%"},
      {"measurement": "remaining binding at 1 µM", "setting": "LATS1", "result": 99, "unit": "%"},
      {"measurement": "remaining binding at 1 µM", "setting": "LRRK2(G2019S)", "result": 95, "unit": "%"},
      {"measurement": "remaining binding at 1 µM", "setting": "RIPK2", "result": 100, "unit": "%"},
      {"measurement": "remaining binding at 1 µM", "setting": "MEK4", "result": 100, "unit": "%"},
      {"measurement": "remaining binding at 1 µM", "setting": "MEK5", "result": 80, "unit": "%"},
      {"measurement": "remaining binding at 1 µM", "setting": "EPHA4", "result": 100, "unit": "%"},
      {"measurement": "remaining binding at 1 µM", "setting": "CDK4-cyclinD3", "result": 100, "unit": "%"},
      {"measurement": "remaining binding at 1 µM", "setting": "[2]", "result": 100, "unit": "%"},
      {"measurement": "remaining binding at 1 µM", "setting": "CAMK2A", "result": 100, "unit": "%"},
      {"measurement": "remaining binding at 1 µM", "setting": "PDPK1", "result": 90, "unit": "%"},
      {"measurement": "remaining binding at 1 µM", "setting": "NEK5", "result": 73, "unit": "%"},
      {"measurement": "remaining binding at 1 µM", "setting": "STK35", "result": 100, "unit": "%"},
      {"measurement": "remaining binding at 1 µM", "setting": "MARK2", "result": 92, "unit": "%"},
      {"measurement": "remaining binding at 1 µM", "setting": "MET(Y1235D)", "result": 100, "unit": "%"},
      {"measurement": "remaining binding at 1 µM", "setting": "MAPKAPK5", "result": 100, "unit": "%"}
    ]}
  ]
}
